We go through 51 molecules from US6784201B2, “Benzothiepines having activity as inhibitors of ileal bile acid transport and taurocholate uptake” (G.D. Searle & Company, priority 1994, dated 2004).

The structures appear in SMILES notation.

The assay deals with T1, human IBAT (Homo sapiens, UniProt Q12908).
T1 construct: expressed in transfected cells; host or cells: Baby hamster kidney (BHK) cells, clone H14
T1 sequence (Q12908 1-348): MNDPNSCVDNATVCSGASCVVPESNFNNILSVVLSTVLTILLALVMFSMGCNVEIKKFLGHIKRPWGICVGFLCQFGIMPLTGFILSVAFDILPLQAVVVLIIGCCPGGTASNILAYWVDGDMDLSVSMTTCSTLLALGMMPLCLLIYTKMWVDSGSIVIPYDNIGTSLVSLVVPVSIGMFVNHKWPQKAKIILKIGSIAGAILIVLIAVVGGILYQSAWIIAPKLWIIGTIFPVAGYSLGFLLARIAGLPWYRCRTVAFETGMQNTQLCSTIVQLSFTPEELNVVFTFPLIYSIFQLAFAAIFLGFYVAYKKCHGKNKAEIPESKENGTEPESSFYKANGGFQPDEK
As to the kind of experiment: In vitro assay of IBAT-mediated uptake of [14C]-taurocholate (TC) in H14 cells. The assay is classed as cell-based. The settings on record: read-out: Human TC IC50. As to the method: In Vitro Assay of Compounds that Inhibit IBAT-Mediated Uptake of [^14C]-Taurocholate (TC) in H14 Cells
Baby hamster kidney cells (BHK) transfected with the cDNA of human IBAT (H14 cells) are seeded at 60,000 cells/well in 96 well Top-Count tissue culture plates for assays run within in 24 hours of seeding, 30,000 cells/well for assays run within 48 hours, and 10,000 cells/well for assays run within 72 hours.
On the day of assay, the cell monolayer is gently washed once with 100 μl assay buffer (Dulbecco's Modified Eagle's medium with 4.5 g/L glucose+0.2% (w/v) fatty acid free bovine serum albumin-(FAF)BSA). To each well 50 μl of a two-fold concentrate of test compound in assay buffer is added along with 50 μl of 6 μM [^14C]-taurocholate in assay buffer (final concentration of 3 μM [^14C]-taurocholate). The cell culture plates are incubated 2 hours at 37° C. prior to gently washing each well twice with 100 μl 4° C. Dulbecco's phosphate-buffered saline (PBS) containing 0.2% (w/v) (FAF)BSA. The wells are then gently washed once with 100 μl 4° C. PBS without (FAF)BSA. To each 200 μl of liquid scintillation counting fluid is added, the plates are heat sealed and shaken for 30 minutes at room temperature prior to measuring the amount of radioactivity in each well on a Packard Top-Count instrument.
As for `CCCCC1(CC)CS(=O)(=O)c2ccc(SC)cc2C(c2ccc(F)cc2)C1O` (stereo not drawn) [Example 281], the IC50 – broadly, the concentration that gives 50% inhibition – was 19 nM. As for `CCCCC1(CC)CS(=O)(=O)c2ccc(N3CCOCC3)cc2C(c2ccc(F)cc2)C1O` (stereo not drawn) [Example 284], the 50% inhibitory concentration (IC50) is 80 nM. For `CCC1(CC)CS(=O)(=O)c2ccc(N)cc2[C@@H](c2ccccc2)[C@H]1O` [Example 287] the value was 4000 nM; for `CCCC1(CCC)CS(=O)(=O)c2ccc(N)cc2[C@@H](c2ccccc2)[C@H]1O` [Example 289], 230 nM; for `CCCCC1(CCCC)CS(=O)(=O)c2ccc(N)cc2[C@@H](c2ccccc2)[C@H]1O` [Example 290], 54 nM.

Consider `CCCCC1(CCCC)CS(=O)(=O)c2ccc(N)cc2[C@@H](c2ccc(F)cc2)[C@H]1O` [Example 292], for which the half-inhibitory concentration (IC50) is 46 nM. As to `CCCCC1(CCCC)CS(=O)(=O)c2ccc(N(C)C)cc2C(c2ccccc2)C1O` (stereo not drawn) [Example 294], the IC50 worked out at 13 nM.

For the molecule `CCCC[C@]1(CC)CS(=O)(=O)c2ccc(N)cc2[C@@H](c2ccc(OCCOCCOCCI)cc2)[C@H]1O` [Example 295], the IC50 was found to be 1300 nM. For `CCCCC1(CC)CS(=O)(=O)c2ccc(N)cc2C(c2ccc(OCCOCCOCC[N+](C)(C)C)cc2)C1O` (stereo not drawn) [Example 296] the value was 1600 nM; for `CCCCC1(CCCC)CS(=O)(=O)c2ccc(N(C)C)cc2C(c2cccc(NC(=O)CCCC[N+](CC)(CC)CC)c2)C1O` (stereo not drawn) [Example 1005], 0.4 nM. In the case of `CCCCC1(CCCC)CS(=O)(=O)c2ccc(N(C)C)cc2C(c2ccc(OCCOCC[N+]3(C)CCN(C)CC3)c(F)c2)C1O` (stereo not drawn) [Example 1006], the IC50 is 1 nM.

As for `CCCCC1(CCCC)CS(=O)(=O)c2ccc(N(C)C)cc2C(c2cccc(OCCOCCOCC[N+](CC)(CC)CC)c2)C1O` (stereo not drawn) [Example 1007], the IC50 came to 1 nM. For `CCCCC1(CCCC)CS(=O)(=O)c2ccc(N(C)C)cc2C(c2cccc(OCCOCCOCC[n+]3ccccn3)c2)C1O` (stereo not drawn) [Example 1008] the value was 1 nM. With `CCCCC1(CCCC)CS(=O)(=O)c2ccc(N(C)C)cc2C(c2cccc(OCCOCCOCC[n+]3ccc(N(C)C)cc3)c2)C1O` (stereo not drawn) [Example 1009] the figure was 1 nM. In the case of `CCCCC1(CCCC)CS(=O)(=O)c2ccc(N(C)C)cc2C(c2ccc(OC)c(F)c2)C1O` (stereo not drawn) [Example 1010], the concentration for half-maximal inhibition (IC50) is 1 nM. With `CCCCC1(CCCC)CS(=O)(=O)c2ccc(N(C)C)cc2C(c2ccc(OCCCCC[N+](CC)(CC)CC)c(F)c2)C1O` (stereo not drawn) [Example 1011] the figure was 1 nM; with `CCCCC1(CCCC)CS(=O)(=O)c2c(OC)cc(N(C)C)cc2C(c2ccc(O)cc2)C1O` (stereo not drawn) [Example 1012], 1.5 nM; with `CCCCC1(CCCC)CS(=O)(=O)c2ccc(N(C)C)cc2C(c2ccc(OCCOCCOCC[N+](C)(C)C)c(F)c2)C1O` (stereo not drawn) [Example 1013], 2 nM. For `CCCCC1(CCCC)CS(=O)(=O)c2c(OC)cc(N(C)C)cc2C(c2ccc(OC)cc2)C1O` (stereo not drawn) [Example 1014] the value was 2 nM. For `CCCCC1(CCCC)CS(=O)(=O)c2ccc(N(C)C)cc2C(c2ccc(OCCOCC[N+]3(C)CCCC3)c(F)c2)C1O` (stereo not drawn) [Example 1015] the value was 2 nM; for `CCCCC1(CCCC)CS(=O)(=O)c2ccc(N(C)C)cc2C(c2cccc(OCCOCCOCC[N+](C)(C)CC(=O)O)c2)C1O` (stereo not drawn) [Example 1016], 2 nM; for `CCCCC1(CCCC)CS(=O)(=O)c2ccc(N(C)C)cc2C(c2cccc(OCCOCCOCC[n+]3ccc(C)c4ccccc43)c2)C1O` (stereo not drawn) [Example 1017], 2 nM. Turning to `CCCCC1(CCCC)CS(=O)(=O)c2ccc(N(C)C)cc2C(c2cccc(OCCOCCOCC[N+](C)(C)CCN(C)C(=O)c3ccccc3)c2)C1O` (stereo not drawn) [Example 1018], the IC50 was determined as 2 nM.

Consider `CCCCC1(CCCC)CS(=O)(=O)c2ccc(N(C)C)cc2C(c2ccc(OCCCCOCCCC[n+]3ccccc3)c(F)c2)C1O` (stereo not drawn) [Example 1019], for which the IC50 was found to be 2 nM. For `CCCCC1(CCCC)CS(=O)(=O)c2ccc(N(C)C)cc2C(c2ccc(OCc3cccc(C[N+](CC)(CC)CC)n3)c(F)c2)C1O` (stereo not drawn) [Example 1020] the value was 2 nM. With `CCCCC1(CCCC)CS(=O)(=O)c2ccc(N(C)C)cc2C(c2cccc(OCCOCCOCC[N+]3(CCO)CCOCC3)c2)C1O` (stereo not drawn) [Example 1021] the figure was 2 nM. With `CCCCC1(CCCC)CS(=O)(=O)c2ccc(N(C)C)cc2C(c2cccc(OCCOCCOCC[N+](CC)(CC)CCO)c2)C1O` (stereo not drawn) [Example 1022] the figure was 2 nM; with `C=C(C)C(=O)OCC[N+](CC)(CC)CCOCCOCCOc1cccc(C2c3cc(N(C)C)ccc3S(=O)(=O)CC(CCCC)(CCCC)C2O)c1` (stereo not drawn) [Example 1023], 2 nM; with `CCCCC1(CCCC)CS(=O)(=O)c2ccc(N(C)C)cc2C(c2cccc(OCCOCCOCC[N+](C)(C)CCN(C)P(C)(=O)c3ccccc3)c2)C1O` (stereo not drawn) [Example 1024], 2 nM.

Regarding `CCCCC1(CCCC)CS(=O)(=O)c2ccc(N(C)C)cc2C(c2ccc(OCc3cccc(C[N+](CC)(CC)CC)c3)c(F)c2)C1O` (stereo not drawn) [Example 1025], the IC50 was 2 nM. For `CCCCC1(CCCC)CS(=O)(=O)c2ccc(N(C)C)cc2C(c2cccc(OCCOCCOCC[n+]3ccc(C(C)C)cc3)c2)C1O` (stereo not drawn) [Example 1026] the value was 2 nM. With `CCCCC1(CCCC)CS(=O)(=O)c2ccc(N(C)C)cc2C(c2cccc(OCCOCCOCC[n+]3ccc(C(C)C)cc3)c2)C1O` (stereo not drawn) [Example 1027] the figure was 2 nM. In the case of `CCCCC1(CCCC)CS(=O)(=O)c2ccc(N(C)C)cc2C(c2cccc(OCCOCCOCC[n+]3ccc(C(=O)O)cc3)c2)C1O` (stereo not drawn) [Example 1028], the concentration for half-maximal inhibition (IC50) is 2 nM. For the molecule `CCCCC1(CCCC)CS(=O)(=O)c2ccc(N(C)C)cc2C(c2cccc(OCCOCCOCC[N+]3(C)CCC(C(=O)c4ccccc4)CC3)c2)C1O` (stereo not drawn) [Example 1029], the IC50 came to 2 nM. For `CCCCC1(CCCC)CS(=O)(=O)c2ccc(N(C)C)cc2C(c2cccc(OCCOCCOCC[n+]3cc4ccccn4c3)c2)C1O` (stereo not drawn) [Example 1030] the value was 2 nM.

Take `CCCCC1(CCCC)CS(=O)(=O)c2ccc(N(C)C)cc2C(c2ccc(OCCCCOCCCC[N+](CC)(CC)CC)c(F)c2)C1O` (stereo not drawn) [Example 1031]: the half-maximal inhibitory concentration (IC50) came out at 2 nM.

Consider `CCCCC1(CCCC)CS(=O)(=O)c2ccc(N(C)C)cc2C(c2cccc(OCCCCC[N+](CC)(CC)CC)c2)C1O` (stereo not drawn) [Example 1032], for which the IC50 was 2 nM. With `CCCCC1(CCCC)CS(=O)(=O)c2ccc(N(C)C)cc2C(c2ccc(OCCOCCOCC[N+]3(C)CCN(C)CC3)c(F)c2)C1O` (stereo not drawn) [Example 1033] the figure was 2 nM; with `CCCCC1(CCCC)CS(=O)(=O)c2ccc(N(C)C)cc2C(c2cccc(OCCOCCOCC[n+]3cccc4ccc5ccccc5c43)c2)C1O` (stereo not drawn) [Example 1034], 2 nM. As to `CCCCC1(CCCC)CS(=O)(=O)c2ccc(N(C)C)cc2C(c2cccc(OCCOCCOCC[N+](C)(C)CCN(CC)P(C)(=O)c3ccccc3)c2)C1O` (stereo not drawn) [Example 1035], the IC50 turned out to be 2 nM. In the case of `CCCCC1(CCCC)CS(=O)(=O)c2ccc(N(C)C)cc2C(c2ccc(O)cc2)C1O` (stereo not drawn) [Example 1037], the half-inhibitory concentration (IC50) amounted to 2.2 nM. For `CCCCC1(CCCC)CS(=O)(=O)c2ccc(N(C)C)cc2C(c2cccc(OCC[N+](C)(C)C)c2)C1O` (stereo not drawn) [Example 1038] the value was 2.5 nM; for `CCCCC1(CCCC)CS(=O)(=O)c2ccc(N(C)C)cc2C(c2ccccc2)C1O` (stereo not drawn) [Example 1039], 2.6 nM; for `CCCCC1(CCCC)CS(=O)(=O)c2ccc(N(C)C)cc2C(c2ccc(OCCCCOCCCC[N+](CC)(CC)CC)c(F)c2)C1O` (stereo not drawn) [Example 1040], 3 nM. Regarding `CCCCC1(CCCC)CS(=O)(=O)c2ccc(N(C)C)cc2C(c2cccc(OCCOCCOCC[n+]3ccnc4ccccc43)c2)C1O` (stereo not drawn) [Example 1041], the IC50 stood at 3 nM. For `C=CC(=O)Nc1cccc(C2c3cc(N(C)C)ccc3S(=O)(=O)CC(CCCC)(CCCC)C2O)c1` (stereo not drawn) [Example 1043] the value was 3 nM; for `CCCCC1(CCCC)CS(=O)(=O)c2ccc(N(C)C)cc2C(c2ccc(OCCOCC[N+](CC)(CC)CC)c(F)c2)C1O` (stereo not drawn) [Example 1044], 3 nM. As for `CCCCC1(CCCC)CS(=O)(=O)c2ccc(N(C)C)cc2C(c2ccc(OCCCCCCCC[N+](CC)(CC)CC)c(F)c2)C1O` (stereo not drawn) [Example 1045], the 50% inhibitory concentration (IC50) stood at 3 nM. For `CCCCC1(CCCC)CS(=O)(=O)c2ccc(N(C)C)cc2C(c2cccc(N)c2)C1O` (stereo not drawn) [Example 1046], the half-inhibitory concentration (IC50) was found to be 3 nM. For `CCCCC1(CCCC)CS(=O)(=O)c2ccc(N(C)C)cc2C(c2ccc(OCCOCCOCC[N+](CC)(CC)CC)cc2)C1O` (stereo not drawn) [Example 1048] the value was 3 nM; for `CCCCC1(CCCC)CS(=O)(=O)c2ccc(N(C)C)cc2C(c2ccc(OCCOCC[n+]3ccccc3)c(F)c2)C1O` (stereo not drawn) [Example 1049], 3 nM.
